{"source": "patent US20060134119A1", "about": "“Drugs containing galectin 9” (priority 2003, published 2006)", "key": {"CD8 T Cell": {"tested_on": "CD8 T Cell", "assay": "Apoptosis induction in non-activated normal CD8 T cells (Table 4)", "assay_type": "cell-based", "conditions": "1 μM galectin-9, 1 μM galectin-3", "procedure": "(§1) For example, measurements of apoptosis induction in the presence of 1 μM galectin-9 are as shown in Table 4 below (also 1 μM for galectin-3 in Table 4)."}, "Daudi": {"tested_on": "Daudi", "assay": "Apoptosis analysis by PI method in Daudi cells", "assay_type": "cell-based", "conditions": "incubation with galectin-9 at least 48 hr or more", "procedure": "(§2) Apoptotic activity was measured by the PI method. When cells are incubated with galectin-9, washed, then subjected to alcohol-fixation, and fragmented DNAs flow out of the cell. Subsequently, incubation with PI leads to a reduction in the fluorescence intensity of apoptotic cells. Apoptosis was examined by the percentage of the cells wherein their fluorescence intensity was reduced. […] This induction was at the same level as H2O2 (hydrogen peroxide solution) that was used as a positive control. In addition, the same results were obtained by another method for examining apoptosis, TUNEL assay."}, "[1]": {"tested_on": "malignant melanoma cell line MM-RU", "assay": "Apoptosis analysis by PI method in malignant melanoma cell line MM-RU", "assay_type": "cell-based, human", "conditions": "incubated with galectin-9 for 72 hr, FIG. 10", "procedure": "as §2"}, "MOLT-4 cells": {"tested_on": "MOLT-4 cells", "assay": "Ca2+ influx, Fluo-3 assay by flow cytometry", "assay_type": "cell-based, human", "conditions": "Fluo-3 assay, FIG. 8", "procedure": "Cells (approx. 10^6 to 10^7 cells/mL) in the culture medium (10% FCS, RPMI-1640 containing 10 mM HEPES, pH 7.2) were incubated with fluo-3 AM (final concentration 10 μM, Dojindo, Kumamoto, Japan), an intracellular calcium indicator, at 37° C. for 30 min (Sharp, B. M. et al., Proc. Natl. Acad. Sci. USA, 93: 8294 (1996)). Then the cells were washed and resuspended in the culture medium (final concentration, approx. 2×10^5 cells/mL per sample). Intracellular calcium level was measured by flow cytometry. The resting cells were stimulated at 1 min after their fluorescence intensities were measured.\nNext, sequential measurement was restarted until different stimuli were applied. In lactose inhibition assay, cells were stimulated in the presence of 30 mM lactose. Sucrose (30 mM) was used as a control (Sano, H. et al., J. Imnunol., 165: 2156 (2000)). A23187 (calcium ionophore, final concentration 5 ng/mL, Wako, Osaka, Japan) was used as a positive control."}, "CD4 T Cell": {"tested_on": "CD4 T Cell", "assay": "Apoptosis induction in non-activated normal CD4 T cells (Table 4)", "assay_type": "cell-based", "conditions": "1 μM galectin-9, 1 μM galectin-3", "procedure": "as §1"}, "MCF-7": {"tested_on": "MCF-7", "assay": "Apoptosis analysis by PI method in MCF-7 cells", "assay_type": "cell-based", "conditions": "incubation with galectin-9 at least 48 hr or more", "procedure": "as §2"}, "eosinophils": {"tested_on": "eosinophils", "assay": "Effect of Gal-9 on induced apoptosis of eosinophils", "assay_type": "cell-based"}, "HL-60": {"tested_on": "HL-60", "assay": "Apoptosis analysis by PI method in HL60 cells", "assay_type": "cell-based", "procedure": "(§3) MOLT-4 (T cell), Jurkat (T cell), BALL-1 (B cell), THP-1 (acute monocytic leukemia derived cell), and HL60 (acute promyelotic leukemia derived cell) cells were obtained from American Type Culture Collection (ATCC). All the cell lines were maintained in an RPMI-1640 medium (Sigma, St. Louis, US) supplemented with 10% FCS in 5% Co2 at 37° C. Lactose (30 mM) was added to the culture medium to inhibit Gal-9 activity. The same concentration of sucrose was used as a control.\n(§4) Cells that underwent apoptosis induction were centrifuged at 4° C. for 5 min at 1,000 rpm, and the cell pellet was resuspended in PBS (300 μL), and adjusted to a final concentration of 70% by gradually adding 100% cold ethanol (700 μL) to the suspended cells with vortexing. […] Stained cells were analyzed by flow cytometry (Sandstrom, K. et al., J Immunol Methods, 240: 55 (2000) and Zhang L. et al., Cancer Lett, 142: 129 (1999)) after removing aggregated cells through a nylon mesh and increasing the cell volume with PBS. […]\n(§5) Apoptotic activity was measured by the PI method. […] Subsequently, incubation with PI leads to a reduction in the fluorescence intensity of apoptotic cells. Apoptosis was examined by the percentage of the cells wherein their fluorescence intensity was reduced. […]"}, "HMC-1": {"tested_on": "HMC-1", "assay": "Apoptosis analysis by PI method in HMC-1 cells", "assay_type": "cell-based", "conditions": "incubation with galectin-9 at least 48 hr or more", "procedure": "as §2"}, "Jurkat T cells": {"tested_on": "Jurkat T cells", "conditions": "16 hr incubation with 1 mM galectin-9, PI, FACS", "procedure": "(§6) Cytotoxicities in Jurkat T cells, K-562 leukemic cells, and normal lymphocytes were measured by flow cytometry analysis using PI. That is, PI invades into the damaged target cells when PI is added for the last 15 min of 16 hr incubation with 1 mM galectin-9. Fluorescence generated by PI is measured by FACS. Untreated cells were used as a negative control group, formalin-fixed cells as a 100% dead cell group, and H2O2 (hydrogen peroxide solution)-treated cells as a positive control group, respectively."}, "K-562 leukemic cells": {"tested_on": "K-562 leukemic cells", "conditions": "16 hr incubation with 1 mM galectin-9, PI, FACS", "procedure": "as §6"}, "normal lymphocytes": {"tested_on": "normal lymphocytes", "conditions": "Normal Lymphocyte; 16 hr incubation with 1 mM galectin-9; PI, FACS", "procedure": "as §6"}, "BALL-1": {"tested_on": "BALL-1", "assay": "Apoptosis analysis by PI method in BALL-1 cells", "assay_type": "cell-based", "procedure": "as §3, §4, §5"}}}
{"substance": "Galectin-9: Recombinant human galectin-9 expressed in E. coli and purified on lactose-agarose", "values": [{"measurement": "apoptosis induction, CD8 T Cell Resting", "setting": "CD8 T Cell", "result": 1.4}, {"measurement": "apoptosis induction, Gal9 (+)", "setting": "Daudi", "result": 58.5}, {"measurement": "apoptosis induction", "setting": "[1]", "result": "strongly induced"}, {"measurement": "calcium influx", "setting": "MOLT-4 cells; A23187 final concentration 5 ng/mL", "result": "increased calcium influx"}, {"measurement": "time within which calcium influx increased after addition", "setting": "MOLT-4 cells", "result": "10 to 20", "unit": "s"}, {"measurement": "apoptosis induction, CD4 T Cell Resting", "setting": "CD4 T Cell", "result": 1.8}, {"measurement": "apoptosis induction, Gal9 (+)", "setting": "MCF-7", "result": 14.1}, {"measurement": "effect on DEX-induced apoptosis", "setting": "eosinophils", "result": "inhibits"}, {"measurement": "effect on anti-Fas Ab-induced apoptosis", "setting": "eosinophils", "result": "stimulates"}, {"measurement": "apoptosis induction, Gal9 (+)", "setting": "HL-60; HL-60, incubation with galectin-9 at least 48 hr or more", "result": 64.6}, {"measurement": "apoptosis induction", "setting": "HL-60; rGal-9 1 μM, 24 hr, FIG. 3", "result": "induced"}, {"measurement": "apoptosis induction, Gal9 (+)", "setting": "HMC-1", "result": 26.2}, {"measurement": "cytotoxicity, 16 hours", "setting": "Jurkat T cells", "result": 46.2}, {"measurement": "cytotoxicity, 16 hours", "setting": "K-562 leukemic cells", "result": 23.4}, {"measurement": "cytotoxicity, 16 hours", "setting": "normal lymphocytes", "result": 2.47}, {"measurement": "apoptosis induction, Gal9 (+)", "setting": "BALL-1; BALL-1, incubation with galectin-9 at least 48 hr or more", "result": 26.0}, {"measurement": "apoptosis induction", "setting": "BALL-1; rGal-9 1 μM, 24 hr, FIG. 3", "result": "induced"}]}
